Our source for the IC50 values is patent publication US10065972B2, “Bicyclic or tricyclic heterocyclic compound” (MITSUBISHI TANABE PHARMA CORPORATION, priority 2014, dated 2018).

Chain of human recombinant KAT-II (Q8N5Z0 30-425): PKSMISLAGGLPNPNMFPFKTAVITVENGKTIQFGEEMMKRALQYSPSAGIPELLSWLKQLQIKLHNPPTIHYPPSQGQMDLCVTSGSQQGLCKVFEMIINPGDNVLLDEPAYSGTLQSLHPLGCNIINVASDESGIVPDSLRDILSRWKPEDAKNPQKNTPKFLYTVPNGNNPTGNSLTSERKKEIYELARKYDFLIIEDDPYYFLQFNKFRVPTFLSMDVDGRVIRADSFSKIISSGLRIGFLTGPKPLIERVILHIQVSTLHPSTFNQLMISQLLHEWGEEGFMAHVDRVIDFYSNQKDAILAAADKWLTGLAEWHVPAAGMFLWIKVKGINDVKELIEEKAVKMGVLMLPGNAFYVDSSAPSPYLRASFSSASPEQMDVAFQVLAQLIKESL

The target in this assay is human recombinant KAT-II (Homo sapiens (Human), UniProt Q8N5Z0). Briefly: KAT-II inhibitory test. Format: biochemical. The settings on record: 3.0 μmol/L kynurenine, 37° C., 1 hr, pH 8.0; kynurenic acid quantified by HPLC. As for the experimental part:
The compounds described in the above-mentioned Examples were used for the KAT-II inhibitory test.
Preparation of Human Recombinant KAT-II
Human recombinant KAT-II was prepared as follows.
His tag and maltose binding protein tag were added to the N-terminal of a gene encoding human KAT-II (Genbank accession number: AF481738.1), and the obtained gene was incorporated into pET32 (Merck Nihon Millipore), which is an Escherichia coli expression vector. Human recombinant KAT-II produced by BL21(DE3) Escherichia coli (Merck Nihon Millipore, 69450) transformed using the plasmid was purified using an amylose resin column (New England Biolabs, #800-21 L).
The inhibitory action of the test compound on human recombinant KAT-II was determined by the following method.
To a reaction mixture (45 μL) containing 3.0 μmol/L kynurenine, 10 μmol/L pyridoxal phosphate, 2.0 ng/μL human recombinant KAT-II, and 150 mmol/L tris(hydroxymethyl)aminomethane-acetate buffer (pH 8.0) was added a 10% dimethyl sulfoxide solution (5 μL) of each test compound prepared, and the mixture was reacted at 37° C. for 1 hr. After the reaction, 50% trichloroacetic acid (5 μL) was added to terminate the reaction.
The resultant kynurenic acid was quantified as follows by high performance liquid chromatography. An enzyme reaction mixture was separated by an octadecylsilane reversed-phase column (SC-50DS, Eicom Corporation; mobile phase: 250 mmol/L zinc acetate, 50 mmol/L sodium acetate, and 5.0% acetonitrile (pH 6.2)) incubated at 30° C., and kynurenic acid was quantified using a fluorescence detector (RF-20Axs, Shimadzu Corporation) at excitation wavelength 354 nm, detection wavelength 460 nm. The analytical curve was drawn every time by an external standard method. Each test compound was tested by dual measurement at each concentration.
With `CC(C)c1cc(=O)n2nc([C@H]3CCCN3C(=O)NCc3ccccc3Cl)sc2n1` [Example 158, (R)-N-(2-chlorobenzyl)-2-[5-oxo-7-(propan-2-yl)-5H-[1,3,4]thiadiazolo[3,2-a]pyrimidin-2-yl]pyrrolidine-1-carboxamide], the IC50 (usually the concentration that gives 50% inhibition) was 170 nM.

For the compound `CC(C)c1cc(=O)n2nc([C@H]3CCCN3C(=O)Nc3ccccc3)sc2n1` [Example 160, (R)-2-[5-oxo-7-(propan-2-yl)-5H-[1,3,4]thiadiazolo[3,2-a]pyrimidin-2-yl]-N-phenylpyrrolidine-1-carboxamide], the IC50 turned out to be 5200 nM. The result for `CC(C)c1cc(=O)n2nc([C@H]3CCCN3C(=O)CN3CCCc4ccccc43)sc2n1` [Example 166, 2-{(R)-1-[(3,4-dihydroquinolin-1(2H)-yl)acetyl]pyrrolidin-2-yl}-7-(propan-2-yl)-5H-[1,3,4]thiadiazolo[3,2-a]pyrimidin-5-one] reads 190 nM. For `CC(C)c1cc(=O)n2nc([C@H]3CCCN3C(=O)NC3(c4ccccc4)CC3)sc2n1` [Example 167, (R)-N-(1-phenylcyclopropyl)-2-[5-oxo-7-(propan-2-yl)-5H-[1,3,4]thiadiazolo[3,2-a]pyrimidin-2-yl]pyrrolidine-1-carboxamide] the value was 90 nM; for `CC(C)c1cc(=O)n2nc([C@H]3CCCN3C(=O)N[C@@H]3CCc4ccccc43)sc2n1` [Example 168, (R)-N-((R)-indan-1-yl)-2-[5-oxo-7-(propan-2-yl)-5H-[1,3,4]thiadiazolo[3,2-a]pyrimidin-2-yl]pyrrolidine-1-carboxamide], 410 nM; for `CC(C)c1cc(=O)n2nc([C@H]3CCCN3C(=O)N3CCc4ccccc43)sc2n1` [Example 170, 2-[(R)-1-(2,3-dihydro-indole-1-carbonyl)pyrrolidin-2-yl]-7-(propan-2-yl)-5H-[1,3,4]thiadiazolo[3,2-a]pyrimidin-5-one], 880 nM.

Regarding `Cc1nc2sc([C@H]3CCCN3C(=O)N[C@H](C)c3ccccc3)nn2c(=O)c1C` [Example 171, (R)-2-(6,7-dimethyl-5-oxo-5H-[1,3,4]thiadiazolo[3,2-a]pyrimidin-2-yl)-N-((R)-1-phenylethyl)pyrrolidine-1-carboxamide], the IC50 was determined as 1800 nM.

Regarding `Cc1nc2sc([C@H]3CCCN3C(=O)NC(C)(C)c3ccccc3)nn2c(=O)c1C` [Example 172, (R)-2-(6,7-dimethyl-5-oxo-5H-[1,3,4]thiadiazolo[3,2-a]pyrimidin-2-yl)-N-(1-methyl-1-phenylethyl)pyrrolidine-1-carboxamide], the IC50 amounted to 840 nM. The result for `Cc1nc2sc([C@H]3CCCN3C(=O)Nc3csc4ncccc34)nn2c(=O)c1C` [Example 175, (R)-2-(6,7-dimethyl-5-oxo-5H-[1,3,4]thiadiazolo[3,2-a]pyrimidin-2-yl)-N-(thieno[2,3-b]pyridin-3-yl)-pyrrolidine-1-carboxamide] reads 3700 nM; that for `CCCc1cc(=O)n2nc(N3CCCN3C(=O)Oc3ccccc3)sc2n1` [Example 176, 2-(5-oxo-7-propyl-5H-[1,3,4]thiadiazolo[3,2-a]pyrimidin-2-yl)pyrazolidine-1-carboxylic acid phenyl ester], 520 nM. On to `CCc1nc2sc(N3CCC[C@@H]3C(=O)NCc3cccc(F)c3)nc2c(=O)n1C` [Example 183, (R)-1-(5-ethyl-6-methyl-7-oxo-6,7-dihydro-[1,3]thiazolo[5,4-d]pyrimidin-2-yl)-N-(3-fluorobenzyl)pyrrolidine-2-carboxamide], for which the IC50 came out at 32 nM. The result for `Cn1c(C(F)(F)F)nc2sc(N3CCC[C@@H]3C(=O)NCc3ccccc3)nc2c1=O` [Example 190, (R)-N-benzyl-1-(6-methyl-7-oxo-5-trifluoromethyl-6,7-dihydro-[1,3]thiazolo[5,4-d]pyrimidin-2-yl)pyrrolidine-2-carboxamide] reads 26 nM. For `COCCn1c(C(F)F)nc2sc(N3CCC[C@@H]3C(=O)NCc3ccccc3)nc2c1=O` [Example 191, (R)-N-benzyl-1-[5-difluoromethyl-6-(2-methoxy-ethyl)-7-oxo-6,7-dihydro-[1,3]thiazolo[5,4-d]pyrimidin-2-yl]pyrrolidine-2-carboxamide], the IC50 worked out at 31 nM. Take `Cn1c(-c2ccccn2)nc2sc(N3CCC[C@@H]3C(=O)NCc3ccccc3)nc2c1=O` [Example 194, (R)-N-benzyl-1-[6-methyl-7-oxo-5-(pyridin-2-yl)-6,7-dihydro-[1,3]thiazolo[5,4-d]pyrimidin-2-yl]pyrrolidine-2-carboxamide]: the IC50 worked out at 76 nM. As for `Cn1c(-c2c(F)cc(F)cc2F)nc2sc(N3CCC[C@@H]3C(=O)NCc3ccccc3)nc2c1=O` [Example 203, (R)-N-benzyl-1-[6-methyl-7-oxo-5-(2,4,6-trifluorophenyl)-6,7-dihydro[1,3]thiazolo[5,4-d]pyrimidin-2-yl]pyrrolidine-2-carboxamide], the 50% inhibitory concentration (IC50) worked out at 14 nM. For `Cn1c(-c2c(F)cccc2F)nc2sc(N3CCC[C@@H]3C(=O)NCc3ccccc3)nc2c1=O` [Example 204, (R)-N-benzyl-1-[5-(2,6-difluorophenyl)-6-methyl-7-oxo-6,7-dihydro[1,3]thiazolo[5,4-d]pyrimidin-2-yl]pyrrolidine-2-carboxamide] the value was 7 nM; for `Cc1noc(-c2nc3sc(N4CCC[C@@H]4C(=O)NCc4ccccc4)nc3c(=O)n2C)n1` [Example 211, (R)-N-benzyl-1-[6-methyl-5-(3-methyl-1,2,4-oxadiazol-5-yl)-7-oxo-6,7-dihydro[1,3]thiazolo[5,4-d]pyrimidin-2-yl]pyrrolidine-2-carboxamide], 7.3 nM; for `Cc1noc(-c2nc3sc(N4CCC[C@@H]4C(=O)NCc4ccc(F)cc4)nc3c(=O)n2C)n1` [Example 213, (R)-N-(4-fluorobenzyl)-1-[6-methyl-5-(3-methyl-[1,2,4]oxadiazol-5-yl)-7-oxo-6,7-dihydro[1,3]thiazolo[5,4-d]pyrimidin-2-yl]pyrrolidine-2-carboxamide], 16 nM. As to `Cc1noc(-c2nc3sc(N4CCC[C@@H]4C(=O)NCc4ccccc4)nc3c(=O)n2CC(F)F)n1` [Example 221, (R)-N-benzyl-1-[6-(2,2-difluoroethyl)-5-(3-methyl-1,2,4-oxadiazol-5-yl)-7-oxo-6,7-dihydro[1,3]thiazolo[5,4-d]pyrimidin-2-yl]pyrrolidine-2-carboxamide], the IC50 is 4.8 nM.

In the case of `CC1(Cn2c(C(F)(F)F)nc3sc(N4CCC[C@@H]4C(=O)NCc4ccccc4)nc3c2=O)COC1` [Example 227, (R)-N-benzyl-1-{6-[(3-methyloxetan-3-yl)methyl]-7-oxo-5-trifluoromethyl-6,7-dihydro[1,3]thiazolo[5,4-d]pyrimidin-2-yl}pyrrolidine-2-carboxamide], the IC50 amounted to 72 nM. For `Cc1ccccc1CNC(=O)[C@H]1CCCN1c1nc2c(=O)n(C)c(C)nc2s1` [Example 229, (R)-1-(5,6-dimethyl-7-oxo-6,7-dihydro-[1,3]thiazolo[5,4-d]pyrimidin-2-yl)-N-(2-methylbenzyl)pyrrolidine-2-carboxamide] the value was 21 nM; for `CCc1nc2sc(N3CC[C@@H]3C(=O)NCc3ccccc3)nc2c(=O)n1C` [Example 233, (R)-N-benzyl-1-(5-ethyl-6-methyl-7-oxo-6,7-dihydro-[1,3]thiazolo[5,4-d]pyrimidin-2-yl)azetidine-2-carboxamide], 120 nM; for `CCc1nc2sc(N3CCCC[C@@H]3C(=O)NCc3ccccc3)nc2c(=O)n1CC` [Example 236, (R)-N-benzyl-1-(5,6-diethyl-7-oxo-6,7-dihydro-[1,3]thiazolo[5,4-d]pyrimidin-2-yl)piperidine-2-carboxamide], 240 nM.

As to `O=C(NCc1ccccc1)[C@H]1CCCN1c1nc2c(=O)n(C3CCCC3)cnc2s1` [Example 238, (R)-N-benzyl-1-(6-cyclopentyl-7-oxo-6,7-dihydro-[1,3]thiazolo[5,4-d]pyrimidin-2-yl)pyrrolidine-2-carboxamide], the IC50 stood at 16 nM. The result for `O=C(NCc1ccccc1)[C@H]1CCCN1c1nc2c(=O)n(C3CCOCC3)c(C(F)(F)F)nc2s1` [Example 244, (R)-N-benzyl-1-[7-oxo-6-(tetrahydro-2H-pyran-4-yl)-5-trifluoromethyl-6,7-dihydro-[1,3]thiazolo[5,4-d]pyrimidin-2-yl]pyrrolidine-2-carboxamide] reads 11 nM; that for `O=C(NCc1ccccc1)[C@H]1CCCN1c1nc2c(=O)n(C3COC3)c(C(F)(F)F)nc2s1` [Example 251, (R)-N-benzyl-1-[6-(oxetan-3-yl)-7-oxo-5-trifluoromethyl-6,7-dihydro-[1,3]thiazolo[5,4-d]pyrimidin-2-yl]pyrrolidine-2-carboxamide], 40 nM; that for `O=C(NCc1ccccc1)[C@H]1CCCN1c1nc2c(=O)n(N3CCCC3)c(C(F)(F)F)nc2s1` [Example 252, (R)-N-benzyl-1-[7-oxo-6-(pyrrolidin-1-yl)-5-trifluoromethyl-6,7-dihydro-[1,3]thiazolo[5,4-d]pyrimidin-2-yl]pyrrolidine-2-carboxamide], 19 nM.
